Target: T1, Alkaline phosphatase, tissue-nonspecific isozyme (Homo sapiens, UniProt P05186)
T1 sequence (P05186 whole entry): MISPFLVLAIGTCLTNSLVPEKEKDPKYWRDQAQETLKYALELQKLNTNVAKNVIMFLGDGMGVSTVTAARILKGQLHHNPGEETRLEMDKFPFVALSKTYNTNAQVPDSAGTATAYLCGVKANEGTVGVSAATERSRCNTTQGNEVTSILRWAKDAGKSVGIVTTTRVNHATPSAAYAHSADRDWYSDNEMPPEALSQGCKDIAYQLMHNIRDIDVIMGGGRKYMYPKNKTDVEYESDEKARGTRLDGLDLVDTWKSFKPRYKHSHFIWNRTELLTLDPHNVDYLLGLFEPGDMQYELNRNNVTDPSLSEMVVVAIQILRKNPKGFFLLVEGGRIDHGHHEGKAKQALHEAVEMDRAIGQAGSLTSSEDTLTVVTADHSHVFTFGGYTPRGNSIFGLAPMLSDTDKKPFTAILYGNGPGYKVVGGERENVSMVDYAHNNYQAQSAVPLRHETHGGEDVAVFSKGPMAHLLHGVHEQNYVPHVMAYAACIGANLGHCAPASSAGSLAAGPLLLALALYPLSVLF
Assay: human TNAP enzyme inhibitors, biochemical, luminescent (AID 518)

Row | SMILES | IC50
1 | Cc1ccc2c(c1)-c1c(cnn1CC(=O)N1CCCN(Cc3ccccc3F)C1)CO2 [1-[3-(2-fluorobenzyl)hexahydropyrimidin-1-yl]-2-(8-methyl-4H-chromeno[4,3-c]pyrazol-1-yl)ethanone] | > 100 µM
2 | O=c1c(=Cc2ccco2)sc2nc(-c3ccccc3Br)nn12 [2-(2-bromophenyl)-5-(2-furanylmethylidene)-6-thiazolo[3,2-b][1,2,4]triazolone] | > 100 µM
3 | Cc1ccc(-n2c(Cc3cccn3C)nnc2SCC(=O)Nc2nnc(C)s2)cc1 [2-({4-(4-methylphenyl)-5-[(1-methyl-1H-pyrrol-2-yl)methyl]-4H-1,2,4-triazol-3-yl}thio)-N-(5-methyl-1,3,4-thiadiazol-2-yl)acetamide] | > 100 µM
4 | CCc1ccc(OCc2nc(-c3ccccn3)no2)c(Br)c1 [2-{5-[(2-bromo-4-ethylphenoxy)methyl]-1,2,4-oxadiazol-3-yl}pyridine] | > 100 µM
5 | CCOC(=O)N1CCN(C(=O)c2ccc(CS(=O)(=O)c3ccccc3OC)o2)CC1 [4-[5-[(2-methoxyphenyl)sulfonylmethyl]-2-furoyl]piperazine-1-carboxylic acid ethyl ester] | > 100 µM
6 | O=C(C1CCN(S(=O)(=O)N2CCC3(CC2)OCCO3)CC1)N1CCN(Cc2ccccc2)CC1 [(4-benzylpiperazin-1-yl)-[1-(1,4-dioxa-8-azaspiro[4.5]decan-8-ylsulfonyl)piperidin-4-yl]methanone] | > 100 µM
7 | O=C(Cn1c(-c2ccccc2)noc1=O)Nc1ccc(N2CCCCCC2)cc1 [MLS000027331] | > 100 µM
8 | COc1ccc(CNC(=O)C(C)NC(=O)c2cc3ccccc3o2)cc1 (configuration not stated) [MLS000047147] | > 100 µM
9 | c1ccc(-n2ncc3c2ncn2cnnc32)cc1 [MLS000048783] | > 100 µM
10 | CCCc1nc2c3cnn(-c4cccc(Cl)c4)c3ncn2n1 [MLS000083263] | > 100 µM
11 | OCc1nnn(-c2cccc(C(F)(F)F)c2)c1CO [MLS000090420] | > 100 µM
12 | CCN(CC)S(=O)(=O)c1ccc2c(c1)c(=O)c(C(=O)N1CCOCC1)cn2C [MLS000092367] | > 100 µM
13 | Cn1c(NC(=O)CC(C)(C)C)cc(=O)n(C)c1=O [MLS000103608] | > 100 µM
14 | Cc1cc(NC(=O)c2noc3c2CCc2ccccc2-3)n(-c2ccccc2)n1 [MLS000116423] | > 100 µM
15 | CCCCNC(=O)c1ccc2nc(-c3ccco3)c(-c3ccco3)nc2c1 [MLS000119995] | > 100 µM

Other lines, results leading:

Row | IC50 | SMILES
16 | 1.35 µM | COc1ccc(-c2[nH]nc3oc(=O)cc(C)c23)cc1
17 | 1.14 µM | COC(=O)c1cc(-c2ccc(Br)cc2)n[nH]1
18 | 3.72 µM | c1ccc(-c2[nH]nc3ccccc23)cc1
19 | 1.73 µM | CC(=N)C(C#N)C(=O)CSc1nnc(-c2ccccc2Br)[nH]1 (configuration not stated)
20 | > 100 µM | O=C(Nc1nnc(C2CCCCC2)[nH]1)C1CCCCC1
21 | 1.83 µM | CC1(C)CC(=O)c2c(n[nH]c2Cc2ccccc2)C1
22 | 2.67 µM | O=C(O)c1cc(-c2ccc(Cl)cc2)n[nH]1
23 | > 100 µM | Brc1ccc(-c2nnc3sc(CNCc4ccc5c(c4)OCO5)cn23)cc1 [1-(1,3-benzodioxol-5-yl)-N-[[3-(4-bromophenyl)-6-thiazolo[2,3-c][1,2,4]triazolyl]methyl]methanamine]
24 | > 100 µM | O=C(Cc1ccc(-n2cccc2)cc1)N1CCN(c2ccccc2F)CC1 [1-(2-fluorophenyl)-4-{[4-(1H-pyrrol-1-yl)phenyl]acetyl}piperazine]
25 | 11.7 µM | Cc1ccsc1C=c1sc2ncnn2c1=O [5-[(3-methyl-2-thienyl)methylene][1,3]thiazolo[3,2-b][1,2,4]triazol-6(5H)-one]
26 | 1.66 µM | COc1cc(CSc2nnc[nH]2)c(OC)cc1CSc1nnc[nH]1 [5-[[2,5-dimethoxy-4-[(1H-1,2,4-triazol-5-ylthio)methyl]phenyl]methylthio]-1H-1,2,4-triazole]
27 | 5.25 µM | COCc1n[nH]c2c1C(c1cc(OC)c(O)c(OC)c1)C(C#N)C(=N)O2 (configuration not stated) [6-azanyl-4-(3,5-dimethoxy-4-oxidanyl-phenyl)-3-(methoxymethyl)-2,4-dihydropyrano[2,3-c]pyrazole-5-carbonitrile]
28 | 2.62 µM | COc1ccc2c(c1)CCc1c-2n[nH]c1C(=O)O [7-methoxy-4,5-dihydro-2H-benzo[g]indazole-3-carboxylic acid]
29 | 15.8 µM | Cn1ncc2c1ncn1nc(CCc3ccccc3)nc21 [MLS000040759]
30 | 7.92 µM | Cc1ccc(-n2ncc3c2ncn2c(C)nnc32)cc1C [MLS000082333]
31 | 0.33 µM | Oc1c2c(c(O)n1-c1nnc(Cc3ccccc3)[nH]1)CC=CC2 [MLS000100008]
32 | 0.82 µM | CCCSc1nnc(NC(C)=O)[nH]1 [MLS000114796]
33 | 1.23 µM | Cc1cc(=O)oc2n[nH]c(-c3ccccc3)c12 [MLS-0013971.0001]
34 | 9.5 µM | CC1(C)Cc2c(sc3nc4n(c(=N)c23)CCCCC4)CO1 [SMR000039131]
35 | 1.17 µM | COC(=O)c1cc(-c2c[nH]c3ccccc23)[nH]n1 [SMR000079439]
36 | 5.39 µM | CCOC(=O)c1sc(NC(=O)CSc2nnc(-c3ccccc3)[nH]2)c(C#N)c1C [ethyl 4-cyano-3-methyl-5-[[2-[(5-phenyl-1H-1,2,4-triazol-3-yl)sulfanyl]acetyl]amino]thiophene-2-carboxylate]
37 | 1.24 µM | COC(=O)c1cc(-c2ccccc2)n[nH]1 [methyl 3-phenyl-1H-pyrazole-5-carboxylate]
